In PMC7098963, “Pharmacophore-Based Virtual Screening Toward the Discovery of Novel Anti-echinococcal Compounds” (Frontiers in Cellular and Infection Microbiology, 2020):
Like-named read-outs stand apart in the source and are kept apart here.

What was measured:
[1] = tested on: E. multilocularis protoscoleces; test: In vitro drug screen with E. multilocularis protoscoleces (methylene blue exclusion); format: cell-based; conditions: Echinococcus multilocularis, read-out: LC50 E. multilocularis PSC
Method: In vitro treatment of PSCs was performed in 96-well microtiter plates (Costar, USA) containing 100 PSCs per 200 μl. A solution of the test compound (6.25~100 μM) was added to each well. Nitazoxanide and mebendazole (25 μM) were used as positive controls, while RPMI 1640 medium and RPMI 1640 with 0.25% DMSO were used as negative controls. […] All experiments were carried out in triplicate and repeated at least twice.

A172 cells = test: Cytotoxicity test, A172 cells (CCK-8); format: cell-based; conditions: for Tox50 A172 cell: 72 h, CCK-8, 3.125~50 μM; for effect on proliferation of cancer cells (A172 cells), in words: CCK-8
Method: (§1) Cytotoxicity was determined using Chang liver cells and A172 cells in DMEM with 10% FBS as previously described (Liu et al., [2018]). The final concentrations of the test compounds were 3.125~50 μM for A172 cells and 6.25~100 μM for Chang liver cells. After 72 h, the cell viabilities were determined using a CCK-8 kit. The concentration that induced 50% cell toxicity (Tox50) was then calculated.

Chang liver cells = test: Cytotoxicity test, Chang liver cells (CCK-8); format: cell-based; conditions: for Tox50 Changliver cell: 72 h, CCK-8, 6.25~100 μM; for inhibition at 100 µM: Chang liver, read-out: inhibition rate, Chang liver cell
Method: as §1

E. multilocularis = test: Compound efficacy in E. multilocularis-infected mice; conditions: for Mean cyst weight reduction (inhibition rate) / treatment efficacy versus control group, in words: 28 days; for Mean cyst weight reduction (inhibition rate): infected BALB/c mice; for deaths of mice during the 28-days treatment: n = 10; for treatment efficacy versus control group, in words: 25 and 50 mg/kg/day oral
Method: E. multilocularis-infected animals [BALB/c mice (SLAC Laboratory Animal Center)] were maintained by serial i.p. transplantation passages through for 6 months, the details can be found in our published paper (Liu et al., [2019]). Eighty infected BALB/c mice were prepared for in vivo treatment experiments. Parasite materials were isolated from the peritoneal cavity of the infected animals and homogenized with Hanks' balanced salt solution (HBSS). Then, after passing the parasite homogenate through a 60-mesh sieve, the E. multilocularis PSCs were collected and rinsed 5~8 times. The viability of the PSCs was determined by the methylene blue exclusion method (Liu et al., [2018]), and PSCs with > 95% viability were used in the following experiments. The PSCs were cultured in RPMI 1,640 medium supplemented with 10% CS and antibiotics (100 U/ml penicillin G and 100 μg/ml streptomycin) at 37°C in 5% CO2.
The remaining mice were orally administered 1% tragacanth solution (1% TRA) as a control. All of the mice were euthanized 2 weeks after finishing the treatment, and all of the cysts were isolated and weighed. The efficacy of the treatments was assessed based on the mean cyst weight as previously described (Liu et al., [2015]).
The LC50 and Tox50 values were calculated by the probability unit method with SPSS version 17.0. The differences in mean cyst weight were analyzed by ANOVA in SPSS 17.0, and P < 0.05 was considered statistically significant.

[2] = Pharmacokinetics analysis in plasma of mice; format: in vivo, BALB/c mice; conditions: drug and plasma samples left overnight
[3] = Pharmacokinetics analysis in plasma of mice; format: in vivo, BALB/c mice; conditions: for MRT last: read-out: MRT(0–t)
Method: To study the relationship between pharmacokinetic characteristics and treatment efficacy in vivo, compounds were administered by oral (50 mg/kg) and intramuscular (12.5 mg/kg) methods to healthy BALB/c mice ([…]). Subgroups of 3 mice each were bled at 0.25, 0.5, 1, 2, 4, 8, 16, 24, 32, and 48 h post-administration. Then, 300 μl samples of plasma were collected and centrifuged at 2,500 g for 15 min. The compounds in the plasma were extracted on Oasis HLB cartridges (Waters, Massachusetts, USA) with praziquantel as the internal standard. The HPLC-HRMS system used for separation and analysis consisted of an Accela 1250 pump, a PAL HTC autosampler, an Accela PDA detector and an Xcalibur data system (Thermo Fisher Scientific, Waltham, MA, USA). Compounds were separated on a 3-μm Waters Atlantis 2.1 mm × 100 mm column (Massachusetts, USA) with a mobile phase containing methanol and formic acid at a flow rate of 0.35 ml/min. The data were analyzed by the non-compartmental model present in DAS 2.0 (Drug Analysis System, Shanghai University of T.C.M, China). Detailed pharmacokinetic experimental methods, including a representative HPLC-MS chromatogram, a standard curve, and a plot used to confirm precision, are shown in the Supplementary Data.

[4] = 72 h incubation, 6.25~100 μM, methylene blue exclusion
[5] = BALB/c, mouse, plasma, po, 50 mg/kg, oral 50 mg/kg, read-out: Cmax
[6] = BALB/c, mouse plasma, oral 50 mg/kg
[7] = mouse plasma, intramuscular 12.5 mg/kg
[8] = BALB/c, im, mouse plasma, intramuscular 12.5 mg/kg
[9] = BALB/c, mouse, plasma, im, 12.5 mg/kg, intramuscular 12.5 mg/kg, read-out: Cmax

SMILES: CCN(CC(=O)Nc1cc(Cl)cc(Cl)c1)Cc1nc(=O)c2ccc(Cl)cc2[nH]1 [Compound S28]
- LC50 [1, 4]: 19.9 ± 0.31 µM
- Tox50 A172 cell (A172 cells): 20.99 ± 4.12 µM
- effect on proliferation of cancer cells (A172 cells), in words (A172 cells): inhibited the proliferation
- Tox50 Changliver cell (Chang liver cells): 35.41 ± 0.62 µM

SMILES: Cc1ccc(C)c(NC(=O)CC2CCC(c3c[nH]c4ccccc34)CC2)c1 (stereo not drawn) [Compound S11]
- LC50 [1, 4]: 18.7 ± 0.87 µM
- Tox50 A172 cell (A172 cells): 22.72 ± 1.37 µM
- effect on proliferation of cancer cells (A172 cells), in words (A172 cells): inhibited the proliferation
- inhibition at 100 µM (Chang liver cells): 42.1%

SMILES: COC(=O)Nc1nc2ccc(C(=O)c3ccccc3)cc2[nH]1 [MBZ, mebendazole, reference compound]
- Mean cyst weight reduction (inhibition rate) (E. multilocularis; 25 mg/kg/day oral gavage): 39.66%
- deaths of mice during the 28-days treatment (E. multilocularis; 25 mg/kg/day oral): 1 mice

SMILES: COc1ccc([C@H]2CCCN2CC(=O)NCc2cccc(Cl)c2)c(OC)c1 [Compound S59]
- LC50 [1, 4]: 19.6 ± 0.56 µM
- Tox50 Changliver cell (Chang liver cells): 66.53 ± 2.99 µM

SMILES: C[C@H](C(=O)N(C)Cc1ccccc1)N(C)CC(=O)Nc1cccc2ccccc12 [Compound S19]
- LC50 [1, 4]: 18.8 ± 1.7 µM
- Tox50 A172 cell (A172 cells): 22.54 ± 1.79 µM
- effect on proliferation of cancer cells (A172 cells), in words (A172 cells): inhibited the proliferation
- inhibition at 100 µM (Chang liver cells): 36.5%

SMILES: O=C(CC1CCC(c2c[nH]c3ccccc23)CC1)Nc1cc(Cl)ccc1Cl (stereo not drawn) [Compound S6]
- LC50 ([1]; 72 h): 17 ± 0.93 µM
- Tox50 A172 cell (A172 cells): 11.00 ± 5.00 µM
- effect on proliferation of cancer cells (A172 cells), in words (A172 cells): inhibited the proliferation
- inhibition at 100 µM (Chang liver cells): 24.6%
- stability in plasma samples: detectable concentration [2]: greatly reduced
- Mean cyst weight reduction (inhibition rate) (E. multilocularis; 25 mg/kg/day oral gavage): 9.53%
- Mean cyst weight reduction (inhibition rate) (E. multilocularis; 50 mg/kg/day oral gavage): 14.43%
- treatment efficacy versus control group, in words (E. multilocularis): no significant difference
- Cmax [3, 5]: 1 ng/mL
- Tmax [3, 6]: 4.33 ± 3.51 h
- MRT last [3, 6]: 4.34 ± 2.59 h
- plasma concentration, in words [3, 7]: below the detection limit
- AUC(0–t) ([3]; mouse plasma, oral 50 mg/kg): 5.10 ± 4.64 ng·h/mL
- Cmax ([3]; mouse plasma, oral 50 mg/kg, 50 mg/kg): 1.55 ± 1.01 ng/mL

SMILES: Cc1ccnc(NC(=O)C2CCN(CCC(=O)Nc3ccc4c(c3)CCC4)CC2)c1 [Compound S31]
- LC50 ([1]; 72 h): 19.2 ± 0.8 µM

SMILES: CN(CC(=O)Nc1cccc(F)c1)CC(=O)Nc1cccc2ccccc12 [Compound S16]
- LC50 [1, 4]: 17.4 ± 0.2 µM
- Tox50 A172 cell (A172 cells): 21.00 ± 6.24 µM
- effect on proliferation of cancer cells (A172 cells), in words (A172 cells): inhibited the proliferation
- inhibition at 100 µM (Chang liver cells): 34.6%

SMILES: OC(CN1CCCCC1)Cn1c2ccc(Cl)cc2c2cc(Cl)ccc21 (stereo not drawn) [HT3]
- deaths of mice during the 28-days treatment (E. multilocularis; 25 mg/kg/day oral): 2 mice
- deaths of mice during the 28-days treatment (E. multilocularis; 50 mg/kg/day oral): 3 mice
- treatment efficacy versus control group, in words (E. multilocularis): ineffective
- Tmax [3, 8]: 1 h
- MRT last [3, 8]: 18.1 ± 2.38 h
- Cmax [3, 9]: 39.6 ± 11.2 ng/mL
- Cmax [3, 5]: 122 ± 42.6 ng/mL
- Tmax [3, 6]: 0.33 ± 0.14 h
- MRT last [3, 6]: 4.16 ± 0.85 h

SMILES: OC(COc1ccc(F)cc1)CN1CCN(C(c2ccccc2)c2ccccc2)CC1 (stereo not drawn) [BTB4]
- deaths of mice during the 28-days treatment (E. multilocularis; 25 mg/kg/day oral): 2 mice
- deaths of mice during the 28-days treatment (E. multilocularis; 50 mg/kg/day oral): 4 mice
- treatment efficacy versus control group, in words (E. multilocularis): ineffective
- Tmax [3, 8]: 4.67 ± 3.06 h
- MRT last [3, 8]: 16 ± 1.13 h
- Cmax [3, 9]: 86.4 ± 4.02 ng/mL
- Cmax [3, 5]: 225 ± 55.4 ng/mL
- Tmax [3, 6]: 2 h
- MRT last [3, 6]: 8.08 ± 1.55 h
- AUC(0–t) [3, 7]: 1589.90 ± 165.13 ng·h/mL
- AUC(0–t) ([3]; mouse plasma, oral 50 mg/kg): 1692.29 ± 341.00 ng·h/mL

SMILES: O=C(CC1CCC(c2c[nH]c3ccccc23)CC1)Nc1cccc(Cl)c1 (stereo not drawn) [Compound S5]
- LC50 [1, 4]: 18.6 ± 1 µM
- Tox50 A172 cell (A172 cells): 11.98 ± 0.91 µM
- effect on proliferation of cancer cells (A172 cells), in words (A172 cells): inhibited the proliferation
- Tox50 Changliver cell (Chang liver cells): 42.44 ± 0.34 µM

SMILES: CN(C)[C@@H](CNC(=O)C[C@H]1Sc2ccc(Cl)cc2NC1=O)Cc1ccccc1 [Compound S39]
- LC50 [1, 4]: 17.7 ± 0.74 µM
- Tox50 Changliver cell (Chang liver cells): 51.46 ± 3.34 µM

SMILES: COc1cccc(NC(=O)CN(C)CC(=O)Nc2ccc(F)c(Cl)c2)c1 [Compound S1]
- LC50 [1, 4]: 20.4 ± 0.51 µM
- Tox50 Changliver cell (Chang liver cells): 43.98 ± 1.38 µM
